Test results from patent US20190343908A1, “Therapeutic Combination for the Treatment of Cancer” (Nerium Biotechnology Inc., priority 2011, published 2019).

What was measured:
[1] = test system: PC3 (human prostate cancer); experiment: Methyl-Tetrazolium viability assay, PC3; assay type: cell-based; set-up: key: absorbance at 570 nm (optical density)
Description: (§1) The Methyl-Tetrazolium dye assay measures the activity of enzymes in mitochondria. The dye precursor is taken up by cells, where it undergoes reduction to the purple formazan. It measures only the mitochondrial activity and, thus, it is not always a reliable indication of whether the cells themselves are alive or dead, since even a recently dead cell has […] enzyme activity in mitochondria. Intracellular glucose concentration, pH, and time before assay all affect the measurements.
(§2) The Methyl Tetrazolium, Sulforhodamine B, and Crystal Violet assays were used to assess cell viabilities. The incubation times were 24 hours, 48 hours, and 72 hours. The Nerium oleander extract Anvirzel™ (a hot water extract of oleander obtained from Salud Integral, Honduras) was tested in concentrations ranging from 0.01 ng/mL to 10 ng/mL.
(§3) Cells were detached by trypsinization (Trypsin-0.25% EDTA, Invitrogen, 25200-072) during the logarithmic phase of culture growth and plated in 96-well plates (18.000 cells/well) (Corning, Costar 359) in a final volume of 200 μl of medium per well. […] The absorbance was measured after 24 hours, 48 hours, and 72 hours of incubation.
(§4) For the Methyl-Tetrazolium assay, the dye (Sigma, M2128; 5 mg/mL, diluted in phosphate-buffered saline) was added to each well and plates were incubated for 3 hours at 37° C. After the end of the incubation period, the medium was discarded and the cells were rinsed with phosphate-buffered saline. Finally, the formazan crystals were dissolved in dimethylsulphoxide (Sigma, D4540).
(§5) The optical density of each plate was measured on a μQuant spectrophotometer and the data were analyzed with Gen5 software (μQuant Biomolecular Spectrophotometer MQX200 and Gen5™ Microplate Data Collection & Analysis software, BioTek® Instruments. Inc, April 2008). Absorbance was measured at 570 nm for all assays and a second wavelength was measured in order to subtract noise. For the Methyl-Tetrazolium assay this second wavelength was 630 nm and for the Sulforhodamine B and Crystal Violet assays it was 690 nm.

[2] = test system: PANC-1 pancreatic cancer cell line; experiment: Methyl-Tetrazolium viability assay, PANC-1; assay type: cell-based, human; set-up: key to Average MTT: absorbance at 570 nm (optical density); conditions: for ABSORBANCE: 0.1 μg/mL cisplatin; for MTT 24 h / MTT 48 h / MTT 72 h: Run 1 average
Description: as §1, §2, §3, §4, §5

N.N.[Cl][Pt][Cl] [cisplatin]
MTT Average ([1]; PC3 Run 1, 24 h, 0.1 μg/ml CDDP): 0.137 | MTT Average ([1]; PC3 Run 1, 24 h, 1 μg/ml CDDP): 0.049 | MTT Average ([1]; PC3 Run 1, 24 h, 10 μg/ml CDDP): 0.091 | MTT Average ([1]; PC3 Run 1, 24 h, 100 μg/ml CDDP): 0.053 | MTT Average ([1]; PC3 Run 1, 48 h, 0.1 μg/ml CDDP): 0.162 | MTT Average ([1]; PC3 Run 1, 48 h, 1 μg/ml CDDP): 0.027 | MTT Average ([1]; PC3 Run 1, 48 h, 10 μg/ml CDDP): 0.064 | MTT Average ([1]; PC3 Run 1, 48 h, 100 μg/ml CDDP): 0.029 | MTT Average ([1]; PC3 Run 1, 72 h, 0.1 μg/ml CDDP): 0.188 | MTT Average ([1]; PC3 Run 1, 72 h, 1 μg/ml CDDP): 0.034 | MTT Average ([1]; PC3 Run 1, 72 h, 10 μg/ml CDDP): 0.044 | MTT Average ([1]; PC3 Run 1, 72 h, 100 μg/ml CDDP): 0.029 | MTT Average ([1]; PC3 Run 2, 24 h, 0.1 μg/ml CDDP): 0.072 | MTT Average ([1]; PC3 Run 2, 24 h, 1 μg/ml CDDP): 0.04 | MTT Average ([1]; PC3 Run 2, 24 h, 10 μg/ml CDDP): 0.079 | MTT Average ([1]; PC3 Run 2, 24 h, 100 μg/ml CDDP): 0.052 | MTT Average ([1]; PC3 Run 2, 48 h, 0.1 μg/ml CDDP): 0.195 | MTT Average ([1]; PC3 Run 2, 48 h, 1 μg/ml CDDP): 0.051 | MTT Average ([1]; PC3 Run 2, 48 h, 10 μg/ml CDDP): 0.074 | MTT Average ([1]; PC3 Run 2, 48 h, 100 μg/ml CDDP): 0.047 | MTT Average ([1]; PC3 Run 2, 72 h, 0.1 μg/ml CDDP): 0.223 | MTT Average ([1]; PC3 Run 2, 72 h, 1 μg/ml CDDP): 0.039 | MTT Average ([1]; PC3 Run 2, 72 h, 10 μg/ml CDDP): 0.068 | MTT Average ([1]; PC3 Run 2, 72 h, 100 μg/ml CDDP): 0.037 | MTT Average ([1]; PC3 Run 3, 24 h, 0.1 μg/ml CDDP): 0.088 | MTT Average ([1]; PC3 Run 3, 24 h, 1 μg/ml CDDP): 0.041 | MTT Average ([1]; PC3 Run 3, 24 h, 10 μg/ml CDDP): 0.096 | MTT Average ([1]; PC3 Run 3, 24 h, 100 μg/ml CDDP): 0.053 | MTT Average ([1]; PC3 Run 3, 48 h, 1 μg/ml CDDP): 0.033 | MTT Average ([1]; PC3 Run 3, 48 h, 10 μg/ml CDDP): 0.062 | MTT Average ([1]; PC3 Run 3, 48 h, 100 μg/ml CDDP): 0.03 | MTT Average ([1]; PC3 Run 3, 72 h, 0.1 μg/ml CDDP): 0.151 | MTT Average ([1]; PC3 Run 3, 72 h, 1 μg/ml CDDP): 0.027 | MTT Average ([1]; PC3 Run 3, 72 h, 10 μg/ml CDDP): 0.057 | MTT Average ([1]; PC3 Run 3, 72 h, 100 μg/ml CDDP): 0.028 | ABSORBANCE ([2]; PANC-1, 48 h): 0.286 | ABSORBANCE ([2]; PANC-1, 72 h): 0.344 | Average MTT ([2]; PANC-1, Run 2, 24 h, 0.1 μg/ml CDDP): 0.096 | Average MTT ([2]; PANC-1, Run 2, 24 h, 1 μg/ml CDDP): 0.029 | Average MTT ([2]; PANC-1, Run 2, 24 h, 10 μg/ml CDDP): 0.058 | Average MTT ([2]; PANC-1, Run 2, 24 h, 100 μg/ml CDDP): 0.029 | Average MTT ([2]; PANC-1, Run 2, 48 h, 0.1 μg/ml CDDP): 0.178 | Average MTT ([2]; PANC-1, Run 2, 48 h, 1 μg/ml CDDP): 0.037 | Average MTT ([2]; PANC-1, Run 2, 48 h, 10 μg/ml CDDP): 0.041 | Average MTT ([2]; PANC-1, Run 2, 48 h, 100 μg/ml CDDP): 0.034 | Average MTT ([2]; PANC-1, Run 2, 72 h, 0.1 μg/ml CDDP): 0.241 | Average MTT ([2]; PANC-1, Run 2, 72 h, 1 μg/ml CDDP): 0.033 | Average MTT ([2]; PANC-1, Run 2, 72 h, 10 μg/ml CDDP): 0.04 | Average MTT ([2]; PANC-1, Run 2, 72 h, 100 μg/ml CDDP): 0.033 | Average MTT ([2]; PANC-1, Run 3, 24 h, 0.1 μg/ml CDDP): 0.076 | Average MTT ([2]; PANC-1, Run 3, 24 h, 1 μg/ml CDDP): 0.02 | Average MTT ([2]; PANC-1, Run 3, 24 h, 10 μg/ml CDDP): 0.04 | Average MTT ([2]; PANC-1, Run 3, 24 h, 100 μg/ml CDDP): 0.022 | Average MTT ([2]; PANC-1, Run 3, 48 h, 0.1 μg/ml CDDP): 0.286 | Average MTT ([2]; PANC-1, Run 3, 48 h, 1 μg/ml CDDP): 0.043 | Average MTT ([2]; PANC-1, Run 3, 48 h, 10 μg/ml CDDP): 0.045 | Average MTT ([2]; PANC-1, Run 3, 48 h, 100 μg/ml CDDP): 0.044 | Average MTT ([2]; PANC-1, Run 3, 72 h, 0.1 μg/ml CDDP): 0.344 | Average MTT ([2]; PANC-1, Run 3, 72 h, 1 μg/ml CDDP): 0.049 | Average MTT ([2]; PANC-1, Run 3, 72 h, 10 μg/ml CDDP): 0.05 | Average MTT ([2]; PANC-1, Run 3, 72 h, 100 μg/ml CDDP): 0.049 | MTT 24 h ([2]; 0.1 μg/ml CDDP): 0.169 | MTT 48 h ([2]; 0.1 μg/ml CDDP): 0.24 | MTT 24 h ([2]; 1 μg/ml CDDP): 0.035 | MTT 48 h ([2]; 1 μg/ml CDDP): 0.035 | MTT 72 h ([2]; 1 μg/ml CDDP): 0.03 | MTT 24 h ([2]; 10 μg/ml CDDP): 0.048 | MTT 48 h ([2]; 10 μg/ml CDDP): 0.038 | MTT 72 h ([2]; 10 μg/ml CDDP): 0.035 | MTT 24 h ([2]; 100 μg/ml CDDP): 0.034 | MTT 48 h ([2]; 100 μg/ml CDDP): 0.039 | MTT 72 h ([2]; 100 μg/ml CDDP): 0.032
